According to PubChem BioAssay AID256 (DTP/NCI, 2004):
“And” between values parts separate entries of the source, which are not always exact repeats. Equal entries are not always repeated. Toxic doses and inconclusive results are not listed. The calls were made as follows: active = survival T/C of 150% or more; inactive = T/C below 125% in these data.

Tested on: CD2F1 mice, L1210 leukemia ip, survival T/C
Assay: NCI In Vivo Anticancer Drug Screen. Data for tumor model L1210 Leukemia (intraperitoneal) in CD2F1 (CDF1) mice
Conditions: higher = longer survival
Procedure, shortened: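 Ratio T/C, where T is the treated-group value and C the vehicle-dosed control value, from mice implanted with a transplantable tumor.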

[1] = endpoint: mean survival time, dose: 100.0 mg/kg/injection, schedule: Q04DX003 (ip), vehicle: saline with Tween-80
[2] = endpoint: mean survival time, dose: 200.0 mg/kg/injection, schedule: Q04DX003 (ip), vehicle: saline with Tween-80
[3] = endpoint: mean survival time, dose: 400.0 mg/kg/injection, schedule: Q04DX003 (ip), vehicle: saline with Tween-80
[4] = endpoint: mean survival time, dose: 50.0 mg/kg/injection, schedule: Q01DX009 (ip), vehicle: saline with Tween-80
[5] = endpoint: mean survival time, dose: 100.0 mg/kg/injection, schedule: Q01DX009 (ip), vehicle: saline with Tween-80
[6] = endpoint: mean survival time, dose: 100.0 mg/kg/injection, schedule: Q04DX003 (ip), vehicle: saline
[7] = endpoint: mean survival time, dose: 200.0 mg/kg/injection, schedule: Q01DX009 (ip), vehicle: saline with Tween-80
[8] = endpoint: mean survival time, dose: 400.0 mg/kg/injection, schedule: Q01DX009 (ip), vehicle: saline with Tween-80
[9] = endpoint: mean survival time, dose: 100.0 mg/kg/injection, schedule: Q01DX001 (ip), vehicle: saline
[10] = endpoint: mean survival time, dose: 100.0 mg/kg/injection, schedule: Q01DX009 (ip), vehicle: saline
[11] = endpoint: mean survival time, dose: 200.0 mg/kg/injection, schedule: Q01DX001 (ip), vehicle: saline
[12] = endpoint: mean survival time, dose: 200.0 mg/kg/injection, schedule: Q01DX009 (ip), vehicle: saline
[13] = endpoint: mean survival time, dose: 400.0 mg/kg/injection, schedule: Q01DX001 (ip), vehicle: saline

Measured: T/C

NC(=S)CNC(=O)c1ccccc1
inactive: [1] 100 % of control and 101 % of control | [2] 101 % of control and 106 % of control | [3] 99 % of control and 111 % of control

CC1(C)CC(O)CC(C)(C)N1O
inactive: [4] 102 % of control | [5] 103 % of control | [6] 97 % of control | [7] 96 % of control | endpoint: mean survival time, dose: 200.0 mg/kg/injection, schedule: Q04DX003 (ip), vehicle: saline 94 % of control | endpoint: mean survival time, dose: 400.0 mg/kg/injection, schedule: Q04DX003 (ip), vehicle: saline 97 % of control

CCOC(=O)NNC(=O)OCC
inactive: endpoint: mean survival time, dose: 12.5 mg/kg/injection, schedule: Q01DX009 (ip), vehicle: saline with Tween-80 97 % of control | endpoint: mean survival time, dose: 12.5 mg/kg/injection, schedule: Q01DX009 (ip), vehicle: saline 90 % of control | endpoint: mean survival time, dose: 25.0 mg/kg/injection, schedule: Q01DX009 (ip), vehicle: saline with Tween-80 96 % of control | endpoint: mean survival time, dose: 25.0 mg/kg/injection, schedule: Q01DX009 (ip), vehicle: saline 101 % of control | [4] 102 % of control | endpoint: mean survival time, dose: 50.0 mg/kg/injection, schedule: Q01DX009 (ip), vehicle: saline 105 % of control

CC1(CCOC2CCCCO2)NC(=O)NC1=O (stereo unspecified)
inactive: endpoint: mean survival time, dose: 100.0 mg/kg/injection, schedule: Q01DX001 (ip), vehicle: saline sonified 102 % of control | [5] 112 % of control | endpoint: mean survival time, dose: 200.0 mg/kg/injection, schedule: Q01DX001 (ip), vehicle: saline sonified 100 % of control | [7] 103 % of control | endpoint: mean survival time, dose: 400.0 mg/kg/injection, schedule: Q01DX001 (ip), vehicle: saline sonified 100 % of control | [8] 103 % of control

COC(=O)CC(NC(=O)C(F)(F)F)C(=O)OC (stereo unspecified)
inactive: [9] 108 % of control | [10] 94 % of control | [1] 97 % of control | [11] 104 % of control | [12] 94 % of control | [2] 97 % of control | [13] 98 % of control | endpoint: mean survival time, dose: 400.0 mg/kg/injection, schedule: Q01DX009 (ip), vehicle: saline 100 % of control | [3] 103 % of control

Nc1ccc2nc3c4ccccc4c(O)n3nc2c1
inactive: [5] 89 % of control | [7] 104 % of control

S=c1nn[nH]n1-c1ccccc1
inactive: [10] 103 % of control | [12] 109 % of control

COc1cc(C2=NCCc3cc4c(cc32)OCO4)cc(OC)c1OC
inactive: endpoint: median survival time, dose: 6.25 mg/kg/injection, schedule: Q01DX009 (ip), vehicle: saline + alcohol 106 % of control | endpoint: median survival time, dose: 12.5 mg/kg/injection, schedule: Q01DX009 (ip), vehicle: saline + alcohol 105 % of control | endpoint: median survival time, dose: 12.5 mg/kg/injection, schedule: Q01DX009 (ip), vehicle: saline 97 % of control and 102 % of control | endpoint: median survival time, dose: 25.0 mg/kg/injection, schedule: Q01DX009 (ip), vehicle: saline + alcohol 107 % of control | endpoint: median survival time, dose: 25.0 mg/kg/injection, schedule: Q01DX009 (ip), vehicle: saline 93 % of control and 104 % of control | endpoint: median survival time, dose: 50.0 mg/kg/injection, schedule: Q01DX009 (ip), vehicle: saline + alcohol 106 % of control | endpoint: median survival time, dose: 50.0 mg/kg/injection, schedule: Q01DX009 (ip), vehicle: saline 105 % of control | endpoint: median survival time, dose: 100.0 mg/kg/injection, schedule: Q01DX009 (ip), vehicle: saline + alcohol 109 % of control | endpoint: median survival time, dose: 100.0 mg/kg/injection, schedule: Q01DX009 (ip), vehicle: saline 105 % of control

Cc1nc2ccc(Cl)cc2n1C
inactive: [4] 102 % of control | [5] 102 % of control | [7] 106 % of control

NCC(Br)CO (stereo unspecified)
inactive: endpoint: mean survival time, dose: 31.3 mg/kg/injection, schedule: Q01DX001 (ip), vehicle: other 95 % of control | endpoint: mean survival time, dose: 62.5 mg/kg/injection, schedule: Q01DX001 (ip), vehicle: other 95 % of control | endpoint: mean survival time, dose: 125.0 mg/kg/injection, schedule: Q01DX001 (ip), vehicle: other 100 % of control | endpoint: mean survival time, dose: 250.0 mg/kg/injection, schedule: Q01DX001 (ip), vehicle: other 101 % of control | endpoint: mean survival time, dose: 500.0 mg/kg/injection, schedule: Q01DX001 (ip), vehicle: other 97 % of control

O=c1cc(-c2ccc(S(=O)(=O)F)cc2)[nH]c2ccc([N+](=O)[O-])cc12
inactive: endpoint: mean survival time, dose: 100.0 mg/kg/injection, schedule: Q01DX001 (ip), vehicle: Klucel (hydroxypropylcellulose) (HPC) 108 % of control | endpoint: mean survival time, dose: 200.0 mg/kg/injection, schedule: Q01DX001 (ip), vehicle: Klucel (hydroxypropylcellulose) (HPC) 101 % of control | endpoint: mean survival time, dose: 400.0 mg/kg/injection, schedule: Q01DX001 (ip), vehicle: Klucel (hydroxypropylcellulose) (HPC) 112 % of control

CCOc1ccccc1N1C(=O)CSC1=S
inactive: endpoint: mean survival time, dose: 25.0 mg/kg/injection, schedule: Q04DX002 (ip), vehicle: other 93 % of control | endpoint: mean survival time, dose: 50.0 mg/kg/injection, schedule: Q04DX002 (ip), vehicle: other 93 % of control | endpoint: mean survival time, dose: 100.0 mg/kg/injection, schedule: Q04DX002 (ip), vehicle: other 89 % of control | endpoint: mean survival time, dose: 200.0 mg/kg/injection, schedule: Q04DX002 (ip), vehicle: other 101 % of control

Cc1ccc(S(=O)(=O)OCCC=C(c2ccccc2)c2ccccc2)cc1
inactive: [4] 101 % of control | [5] 101 % of control | [7] 96 % of control

CCOC(=O)/N=C/N(C)C
inactive: [9] 100 % of control | [11] 109 % of control | [13] 103 % of control | endpoint: median survival time, dose: 25.0 mg/kg/injection, schedule: Q04DX003 (ip), vehicle: saline with Tween-80 100 % of control | endpoint: median survival time, dose: 50.0 mg/kg/injection, schedule: Q04DX003 (ip), vehicle: saline with Tween-80 100 % of control | endpoint: median survival time, dose: 100.0 mg/kg/injection, schedule: Q04DX003 (ip), vehicle: saline with Tween-80 100 % of control

COC(=O)C(CSCc1ccccc1)NC(=O)CCNC(=O)OCc1ccccc1 (stereo unspecified)
inactive: endpoint: mean survival time, dose: 25.0 mg/kg/injection, schedule: Q01DX009 (ip), vehicle: Klucel (hydroxypropylcellulose) (HPC) 102 % of control | endpoint: mean survival time, dose: 50.0 mg/kg/injection, schedule: Q01DX009 (ip), vehicle: Klucel (hydroxypropylcellulose) (HPC) 102 % of control | endpoint: mean survival time, dose: 100.0 mg/kg/injection, schedule: Q01DX009 (ip), vehicle: Klucel (hydroxypropylcellulose) (HPC) 96 % of control | endpoint: mean survival time, dose: 200.0 mg/kg/injection, schedule: Q01DX009 (ip), vehicle: Klucel (hydroxypropylcellulose) (HPC) 102 % of control | endpoint: mean survival time, dose: 400.0 mg/kg/injection, schedule: Q01DX009 (ip), vehicle: Klucel (hydroxypropylcellulose) (HPC) 86 % of control

C(=C1c2ccccc2-c2ccccc21)c1cccnc1
inactive: [5] 98 % of control | [1] 101 % of control | [7] 102 % of control | [2] 101 % of control | [8] 88 % of control | [3] 95 % of control

[Cl][Pt+2][Cl].c1ccc(CC2CC[N-]CC2)cc1.c1ccc(CC2CC[N-]CC2)cc1
inactive: endpoint: mean survival time, dose: 50.0 mg/kg/injection, schedule: Q01DX001 (ip), vehicle: saline with Tween-80 96 % of control | endpoint: mean survival time, dose: 100.0 mg/kg/injection, schedule: Q01DX001 (ip), vehicle: saline with Tween-80 96 % of control | endpoint: mean survival time, dose: 200.0 mg/kg/injection, schedule: Q01DX001 (ip), vehicle: saline with Tween-80 90 % of control

Nc1ncnc2c1ncn2C1OC(COP(=O)(O)O)C(O)C1O.[NH-]C1CCCCC1[NH-].[Pt+2] (stereo unspecified)
inactive: endpoint: median survival time, dose: 3.12 mg/kg/injection, schedule: Q04DX003 (ip), vehicle: saline 101 % of control | endpoint: median survival time, dose: 6.25 mg/kg/injection, schedule: Q04DX003 (ip), vehicle: saline 108 % of control | endpoint: median survival time, dose: 12.5 mg/kg/injection, schedule: Q04DX003 (ip), vehicle: saline 103 % of control | endpoint: median survival time, dose: 25.0 mg/kg/injection, schedule: Q04DX003 (ip), vehicle: saline 108 % of control | endpoint: median survival time, dose: 50.0 mg/kg/injection, schedule: Q04DX003 (ip), vehicle: saline 112 % of control | endpoint: median survival time, dose: 100.0 mg/kg/injection, schedule: Q04DX003 (ip), vehicle: saline 108 % of control | endpoint: median survival time, dose: 200.0 mg/kg/injection, schedule: Q04DX003 (ip), vehicle: saline 122 % of control

CCOC(=O)/C=C\C(=O)O.[Mn]
inactive: endpoint: mean survival time, dose: 25.0 mg/kg/injection, schedule: Q04DX003 (ip), vehicle: saline 102 % of control | endpoint: mean survival time, dose: 50.0 mg/kg/injection, schedule: Q04DX003 (ip), vehicle: saline 104 % of control | endpoint: mean survival time, dose: 100.0 mg/kg/injection, schedule: Q04DX002 (ip), vehicle: saline 98 % of control | [6] 112 % of control | [11] 98 % of control | endpoint: mean survival time, dose: 200.0 mg/kg/injection, schedule: Q04DX002 (ip), vehicle: saline 97 % of control | endpoint: mean survival time, dose: 300.0 mg/kg/injection, schedule: Q04DX002 (ip), vehicle: saline 116 % of control

O=C(Nc1ccccc1Cl)c1ccc([N+](=O)[O-])cc1
inactive: [5] 94 % of control | [1] 96 % of control | [7] 97 % of control | [2] 96 % of control | [8] 97 % of control | [3] 93 % of control
